Laboratory results taken from PubChem BioAssay AID1259407 (Chemical Carcinogenesis Research Information System (CCRIS), 2018).
Activity calls are given as the source filed them. No rule for the calls is given here.

Test system: CCRIS mutagenicity, Ames/micronucleus/aberration tests
Assay: CCRIS mutagenicity studies

In the case of `CC1(C)COC1=O`, the mutagenic call (Test System: AMES SALMONELLA TYPHIMURIUM, Strain/Indicator: TA98, Metabolic Activation: HAMSTER, LIVER, S-9, AROCLOR 1254, Method: PREINCUBATION) is reported as “inactive; negative”, the mutagenic call (Test System: AMES SALMONELLA TYPHIMURIUM, Strain/Indicator: TA98, Metabolic Activation: HAMSTER, LIVER, S-9, AROCLOR 1254, Method: STANDARD PLATE) is reported as “inactive; negative” and the mutagenic call (Test System: AMES SALMONELLA TYPHIMURIUM, Strain/Indicator: TA98, Metabolic Activation: HAMSTER, LIVER, S-9, Method: PREINCUBATION) is reported as “inactive; negative”. For the same compound, the mutagenic call (Test System: AMES SALMONELLA TYPHIMURIUM, Strain/Indicator: TA98, Metabolic Activation: HAMSTER, LIVER, S-9, Method: STANDARD PLATE) was “inactive; negative”, the mutagenic call (Test System: AMES SALMONELLA TYPHIMURIUM, Strain/Indicator: TA98, Metabolic Activation: MOUSE, LIVER, S-9, AROCLOR 1254, Method: PREINCUBATION) was “inactive; negative” and the mutagenic call (Test System: AMES SALMONELLA TYPHIMURIUM, Strain/Indicator: TA98, Metabolic Activation: MOUSE, LIVER, S-9, AROCLOR 1254, Method: STANDARD PLATE) was “inactive; negative”. The mutagenic call (Test System: AMES SALMONELLA TYPHIMURIUM, Strain/Indicator: TA98, Metabolic Activation: MOUSE, LIVER, S-9, Method: PREINCUBATION) was “inactive; negative”, the mutagenic call (Test System: AMES SALMONELLA TYPHIMURIUM, Strain/Indicator: TA98, Metabolic Activation: MOUSE, LIVER, S-9, Method: STANDARD PLATE) was “inactive; negative” and the mutagenic call (Test System: AMES SALMONELLA TYPHIMURIUM, Strain/Indicator: TA98, Metabolic Activation: NONE, Method: PREINCUBATION) was “inactive; negative”. For the same compound, the mutagenic call (Test System: AMES SALMONELLA TYPHIMURIUM, Strain/Indicator: TA98, Metabolic Activation: NONE, Method: STANDARD PLATE) was “inactive; negative”, the mutagenic call (Test System: AMES SALMONELLA TYPHIMURIUM, Strain/Indicator: TA98, Metabolic Activation: RAT, LIVER, S-9, AROCLOR 1254, Method: PREINCUBATION) was “inactive; negative” and the mutagenic call (Test System: AMES SALMONELLA TYPHIMURIUM, Strain/Indicator: TA98, Metabolic Activation: RAT, LIVER, S-9, AROCLOR 1254, Method: STANDARD PLATE) was “inactive; negative”. For the same compound, the mutagenic call (Test System: AMES SALMONELLA TYPHIMURIUM, Strain/Indicator: TA98, Metabolic Activation: RAT, LIVER, S-9, Method: PREINCUBATION) was “inactive; negative”, the mutagenic call (Test System: AMES SALMONELLA TYPHIMURIUM, Strain/Indicator: TA98, Metabolic Activation: RAT, LIVER, S-9, Method: STANDARD PLATE) was “inactive; negative” and the mutagenic call (Test System: AMES SALMONELLA TYPHIMURIUM, Strain/Indicator: TA100, Metabolic Activation: HAMSTER, LIVER, S-9, AROCLOR 1254, Method: STANDARD PLATE) was “active; positive”. The mutagenic call (Test System: AMES SALMONELLA TYPHIMURIUM, Strain/Indicator: TA100, Metabolic Activation: HAMSTER, LIVER, S-9, Method: STANDARD PLATE) was “active; positive”, the mutagenic call (Test System: AMES SALMONELLA TYPHIMURIUM, Strain/Indicator: TA100, Metabolic Activation: MOUSE, LIVER, S-9, AROCLOR 1254, Method: STANDARD PLATE) was “active; positive” and the mutagenic call (Test System: AMES SALMONELLA TYPHIMURIUM, Strain/Indicator: TA100, Metabolic Activation: MOUSE, LIVER, S-9, Method: STANDARD PLATE) was “active; positive”. For the same compound, the mutagenic call (Test System: AMES SALMONELLA TYPHIMURIUM, Strain/Indicator: TA100, Metabolic Activation: NONE, Method: STANDARD PLATE) was “active; positive”, the mutagenic call (Test System: AMES SALMONELLA TYPHIMURIUM, Strain/Indicator: TA100, Metabolic Activation: RAT, LIVER, S-9, AROCLOR 1254, Method: STANDARD PLATE) was “active; positive” and the mutagenic call (Test System: AMES SALMONELLA TYPHIMURIUM, Strain/Indicator: TA100, Metabolic Activation: RAT, LIVER, S-9, Method: STANDARD PLATE) was “active; positive”. For the same compound, the mutagenic call (Test System: AMES SALMONELLA TYPHIMURIUM, Strain/Indicator: TA1535, Metabolic Activation: HAMSTER, LIVER, S-9, AROCLOR 1254, Method: PREINCUBATION) was “inactive; negative”, the mutagenic call (Test System: AMES SALMONELLA TYPHIMURIUM, Strain/Indicator: TA1535, Metabolic Activation: HAMSTER, LIVER, S-9, Method: PREINCUBATION) was “inactive; negative” and the mutagenic call (Test System: AMES SALMONELLA TYPHIMURIUM, Strain/Indicator: TA1535, Metabolic Activation: MOUSE, LIVER, S-9, AROCLOR 1254, Method: PREINCUBATION) was “inactive; negative”. For the same compound, the mutagenic call (Test System: AMES SALMONELLA TYPHIMURIUM, Strain/Indicator: TA1535, Metabolic Activation: MOUSE, LIVER, S-9, Method: PREINCUBATION) was “inactive; negative”, the mutagenic call (Test System: AMES SALMONELLA TYPHIMURIUM, Strain/Indicator: TA1535, Metabolic Activation: NONE, Method: PREINCUBATION) was “inactive; negative” and the mutagenic call (Test System: AMES SALMONELLA TYPHIMURIUM, Strain/Indicator: TA1535, Metabolic Activation: RAT, LIVER, S-9, AROCLOR 1254, Method: PREINCUBATION) was “inactive; negative”. For the same compound, the mutagenic call (Test System: AMES SALMONELLA TYPHIMURIUM, Strain/Indicator: TA1535, Metabolic Activation: RAT, LIVER, S-9, Method: PREINCUBATION) was “inactive; negative”, the mutagenic call (Test System: AMES SALMONELLA TYPHIMURIUM, Strain/Indicator: TA1537, Metabolic Activation: HAMSTER, LIVER, S-9, AROCLOR 1254, Method: PREINCUBATION) was “inactive; negative” and the mutagenic call (Test System: AMES SALMONELLA TYPHIMURIUM, Strain/Indicator: TA1537, Metabolic Activation: HAMSTER, LIVER, S-9, AROCLOR 1254, Method: STANDARD PLATE) was “inactive; negative”. The mutagenic call (Test System: AMES SALMONELLA TYPHIMURIUM, Strain/Indicator: TA1537, Metabolic Activation: HAMSTER, LIVER, S-9, Method: PREINCUBATION) was “inactive; negative”, the mutagenic call (Test System: AMES SALMONELLA TYPHIMURIUM, Strain/Indicator: TA1537, Metabolic Activation: HAMSTER, LIVER, S-9, Method: STANDARD PLATE) was “inactive; negative” and the mutagenic call (Test System: AMES SALMONELLA TYPHIMURIUM, Strain/Indicator: TA1537, Metabolic Activation: MOUSE, LIVER, S-9, AROCLOR 1254, Method: PREINCUBATION) was “inactive; negative”. For the same compound, the mutagenic call (Test System: AMES SALMONELLA TYPHIMURIUM, Strain/Indicator: TA1537, Metabolic Activation: MOUSE, LIVER, S-9, AROCLOR 1254, Method: STANDARD PLATE) was “inactive; negative”, the mutagenic call (Test System: AMES SALMONELLA TYPHIMURIUM, Strain/Indicator: TA1537, Metabolic Activation: MOUSE, LIVER, S-9, Method: PREINCUBATION) was “inactive; negative” and the mutagenic call (Test System: AMES SALMONELLA TYPHIMURIUM, Strain/Indicator: TA1537, Metabolic Activation: MOUSE, LIVER, S-9, Method: STANDARD PLATE) was “inactive; negative”. The mutagenic call (Test System: AMES SALMONELLA TYPHIMURIUM, Strain/Indicator: TA1537, Metabolic Activation: NONE, Method: PREINCUBATION) was “inactive; negative”, the mutagenic call (Test System: AMES SALMONELLA TYPHIMURIUM, Strain/Indicator: TA1537, Metabolic Activation: NONE, Method: STANDARD PLATE) was “inactive; negative” and the mutagenic call (Test System: AMES SALMONELLA TYPHIMURIUM, Strain/Indicator: TA1537, Metabolic Activation: RAT, LIVER, S-9, AROCLOR 1254, Method: PREINCUBATION) was “inactive; negative”. For the same compound, the mutagenic call (Test System: AMES SALMONELLA TYPHIMURIUM, Strain/Indicator: TA1537, Metabolic Activation: RAT, LIVER, S-9, AROCLOR 1254, Method: STANDARD PLATE) was “inactive; negative”, the mutagenic call (Test System: AMES SALMONELLA TYPHIMURIUM, Strain/Indicator: TA1537, Metabolic Activation: RAT, LIVER, S-9, Method: PREINCUBATION) was “inactive; negative” and the mutagenic call (Test System: AMES SALMONELLA TYPHIMURIUM, Strain/Indicator: TA1537, Metabolic Activation: RAT, LIVER, S-9, Method: STANDARD PLATE) was “inactive; negative”. The mutagenic call (Test System: AMES SALMONELLA TYPHIMURIUM, Strain/Indicator: TA1538, Metabolic Activation: HAMSTER, LIVER, S-9, AROCLOR 1254, Method: PREINCUBATION) was “inactive; negative”, the mutagenic call (Test System: AMES SALMONELLA TYPHIMURIUM, Strain/Indicator: TA1538, Metabolic Activation: HAMSTER, LIVER, S-9, AROCLOR 1254, Method: STANDARD PLATE) was “inactive; negative” and the mutagenic call (Test System: AMES SALMONELLA TYPHIMURIUM, Strain/Indicator: TA1538, Metabolic Activation: HAMSTER, LIVER, S-9, Method: PREINCUBATION) was “inactive; negative”. For the same compound, the mutagenic call (Test System: AMES SALMONELLA TYPHIMURIUM, Strain/Indicator: TA1538, Metabolic Activation: HAMSTER, LIVER, S-9, Method: STANDARD PLATE) was “inactive; negative”, the mutagenic call (Test System: AMES SALMONELLA TYPHIMURIUM, Strain/Indicator: TA1538, Metabolic Activation: MOUSE, LIVER, S-9, AROCLOR 1254, Method: PREINCUBATION) was “inactive; negative” and the mutagenic call (Test System: AMES SALMONELLA TYPHIMURIUM, Strain/Indicator: TA1538, Metabolic Activation: MOUSE, LIVER, S-9, AROCLOR 1254, Method: STANDARD PLATE) was “inactive; negative”. For the same compound, the mutagenic call (Test System: AMES SALMONELLA TYPHIMURIUM, Strain/Indicator: TA1538, Metabolic Activation: MOUSE, LIVER, S-9, Method: PREINCUBATION) was “inactive; negative”, the mutagenic call (Test System: AMES SALMONELLA TYPHIMURIUM, Strain/Indicator: TA1538, Metabolic Activation: MOUSE, LIVER, S-9, Method: STANDARD PLATE) was “inactive; negative” and the mutagenic call (Test System: AMES SALMONELLA TYPHIMURIUM, Strain/Indicator: TA1538, Metabolic Activation: NONE, Method: PREINCUBATION) was “inactive; negative”. The mutagenic call (Test System: AMES SALMONELLA TYPHIMURIUM, Strain/Indicator: TA1538, Metabolic Activation: NONE, Method: STANDARD PLATE) was “inactive; negative”, the mutagenic call (Test System: AMES SALMONELLA TYPHIMURIUM, Strain/Indicator: TA1538, Metabolic Activation: RAT, LIVER, S-9, AROCLOR 1254, Method: PREINCUBATION) was “inactive; negative” and the mutagenic call (Test System: AMES SALMONELLA TYPHIMURIUM, Strain/Indicator: TA1538, Metabolic Activation: RAT, LIVER, S-9, AROCLOR 1254, Method: STANDARD PLATE) was “inactive; negative”. The mutagenic call (Test System: AMES SALMONELLA TYPHIMURIUM, Strain/Indicator: TA1538, Metabolic Activation: RAT, LIVER, S-9, Method: PREINCUBATION) was “inactive; negative”, the mutagenic call (Test System: AMES SALMONELLA TYPHIMURIUM, Strain/Indicator: TA1538, Metabolic Activation: RAT, LIVER, S-9, Method: STANDARD PLATE) was “inactive; negative” and the mutagenic call (Test System: E. COLI, Strain/Indicator: WP2 UVRA, Metabolic Activation: HAMSTER, LIVER, S-9, AROCLOR 1254, Method: PREINCUBATION) was “active; positive”. For the same compound, the mutagenic call (Test System: E. COLI, Strain/Indicator: WP2 UVRA, Metabolic Activation: HAMSTER, LIVER, S-9, Method: PREINCUBATION) was “active; positive”, the mutagenic call (Test System: E. COLI, Strain/Indicator: WP2 UVRA, Metabolic Activation: MOUSE, LIVER, S-9, AROCLOR 1254, Method: PREINCUBATION) was “active; positive” and the mutagenic call (Test System: E. COLI, Strain/Indicator: WP2 UVRA, Metabolic Activation: NONE, Method: PREINCUBATION) was “active; positive”. The mutagenic call (Test System: E. COLI, Strain/Indicator: WP2 UVRA, Metabolic Activation: RAT, LIVER, S-9, AROCLOR 1254, Method: PREINCUBATION) was “active; positive” and the mutagenic call (Test System: E. COLI, Strain/Indicator: WP2 UVRA, Metabolic Activation: RAT, LIVER, S-9, Method: PREINCUBATION) was “active; positive”.
